Measured values reported in publication PMC10882719 (Frontiers in Neuroscience, 2024).
Read-outs that look alike come from different tables or passages of the source.

Legend:
Type in all cases: cell-based
168 GPCRs [1] = target: T1, 168 GPCRs (Homo sapiens, UniProt P20309)
T1 construct: host or cells: PathHunter cell lines

168 GPCRs [2] = target: T2, 168 GPCRs (Homo sapiens, UniProt P30872); settings: SSTR1
T2 construct: host or cells: PathHunter cell lines

168 GPCRs [3] = target: T3, 168 GPCRs (Homo sapiens, UniProt P41597)
T3 construct: host or cells: PathHunter cell lines
T3 sequence (P41597 whole entry): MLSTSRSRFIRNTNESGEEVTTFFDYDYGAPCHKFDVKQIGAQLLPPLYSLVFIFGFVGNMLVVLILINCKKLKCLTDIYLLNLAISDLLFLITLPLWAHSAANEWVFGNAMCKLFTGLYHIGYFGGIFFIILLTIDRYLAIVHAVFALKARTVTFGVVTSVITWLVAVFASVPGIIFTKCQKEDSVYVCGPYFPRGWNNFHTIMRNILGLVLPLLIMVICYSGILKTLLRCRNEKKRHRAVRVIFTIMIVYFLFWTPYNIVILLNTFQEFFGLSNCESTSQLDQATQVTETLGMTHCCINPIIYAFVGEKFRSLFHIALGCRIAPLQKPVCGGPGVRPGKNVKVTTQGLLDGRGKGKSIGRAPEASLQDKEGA

168 GPCRs [4] = target: T4, 168 GPCRs (Homo sapiens, UniProt Q01726); settings: MC1R
T4 construct: host or cells: PathHunter cell lines
T4 sequence (Q01726 whole entry): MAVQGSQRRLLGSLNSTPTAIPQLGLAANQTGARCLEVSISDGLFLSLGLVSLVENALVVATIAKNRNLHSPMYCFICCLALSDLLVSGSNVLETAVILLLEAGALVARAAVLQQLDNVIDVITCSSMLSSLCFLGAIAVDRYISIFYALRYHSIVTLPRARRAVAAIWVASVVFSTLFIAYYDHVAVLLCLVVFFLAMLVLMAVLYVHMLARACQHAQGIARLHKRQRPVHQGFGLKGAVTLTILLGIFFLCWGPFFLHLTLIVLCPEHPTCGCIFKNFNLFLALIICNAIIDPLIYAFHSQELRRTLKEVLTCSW

168 GPCRs [5] = target: T5, 168 GPCRs (Homo sapiens, UniProt P49019); settings: GPR109B
T5 construct: host or cells: PathHunter cell lines
T5 sequence (P49019 whole entry): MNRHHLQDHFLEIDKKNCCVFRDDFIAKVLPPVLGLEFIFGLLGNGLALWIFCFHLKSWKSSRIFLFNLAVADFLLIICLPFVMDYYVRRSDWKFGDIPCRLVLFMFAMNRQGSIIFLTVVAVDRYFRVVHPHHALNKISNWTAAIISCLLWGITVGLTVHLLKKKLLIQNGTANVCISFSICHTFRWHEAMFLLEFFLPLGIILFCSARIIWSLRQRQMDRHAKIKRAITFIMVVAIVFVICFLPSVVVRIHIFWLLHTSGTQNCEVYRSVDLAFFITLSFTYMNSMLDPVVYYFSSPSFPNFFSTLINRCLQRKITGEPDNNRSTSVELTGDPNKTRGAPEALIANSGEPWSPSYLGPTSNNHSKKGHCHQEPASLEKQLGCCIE

168 GPCRs [6] = target: T6, 168 GPCRs (Homo sapiens, UniProt O95977)
T6 construct: host or cells: PathHunter cell lines
T6 sequence (O95977 1-384): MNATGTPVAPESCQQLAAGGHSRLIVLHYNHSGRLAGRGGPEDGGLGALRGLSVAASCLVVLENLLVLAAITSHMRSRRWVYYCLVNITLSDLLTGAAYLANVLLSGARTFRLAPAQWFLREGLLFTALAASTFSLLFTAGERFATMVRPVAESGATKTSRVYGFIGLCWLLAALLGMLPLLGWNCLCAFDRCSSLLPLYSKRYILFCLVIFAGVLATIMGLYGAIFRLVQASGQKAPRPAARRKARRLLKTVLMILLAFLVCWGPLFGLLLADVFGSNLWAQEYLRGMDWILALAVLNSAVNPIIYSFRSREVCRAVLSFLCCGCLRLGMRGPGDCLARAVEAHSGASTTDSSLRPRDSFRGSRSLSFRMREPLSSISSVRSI

168 GPCRs [7] = target: T7, 168 GPCRs (Homo sapiens, UniProt P35462)
T7 construct: host or cells: PathHunter cell lines
T7 sequence (P35462 whole entry): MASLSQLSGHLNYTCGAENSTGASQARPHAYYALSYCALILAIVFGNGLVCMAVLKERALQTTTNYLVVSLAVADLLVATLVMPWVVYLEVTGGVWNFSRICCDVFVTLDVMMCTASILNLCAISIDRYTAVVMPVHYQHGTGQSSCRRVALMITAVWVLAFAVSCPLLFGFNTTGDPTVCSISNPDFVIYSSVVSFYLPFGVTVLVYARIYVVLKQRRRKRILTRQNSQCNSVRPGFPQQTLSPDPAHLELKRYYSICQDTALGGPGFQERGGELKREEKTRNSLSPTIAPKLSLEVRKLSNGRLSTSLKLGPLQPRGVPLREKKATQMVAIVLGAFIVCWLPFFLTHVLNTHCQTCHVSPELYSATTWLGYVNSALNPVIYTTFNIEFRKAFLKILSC

168 GPCRs [8] = target: T8, 168 GPCRs (Homo sapiens, UniProt P43115); settings: PTGER3
T8 construct: host or cells: PathHunter cell lines
T8 sequence (P43115 1-390): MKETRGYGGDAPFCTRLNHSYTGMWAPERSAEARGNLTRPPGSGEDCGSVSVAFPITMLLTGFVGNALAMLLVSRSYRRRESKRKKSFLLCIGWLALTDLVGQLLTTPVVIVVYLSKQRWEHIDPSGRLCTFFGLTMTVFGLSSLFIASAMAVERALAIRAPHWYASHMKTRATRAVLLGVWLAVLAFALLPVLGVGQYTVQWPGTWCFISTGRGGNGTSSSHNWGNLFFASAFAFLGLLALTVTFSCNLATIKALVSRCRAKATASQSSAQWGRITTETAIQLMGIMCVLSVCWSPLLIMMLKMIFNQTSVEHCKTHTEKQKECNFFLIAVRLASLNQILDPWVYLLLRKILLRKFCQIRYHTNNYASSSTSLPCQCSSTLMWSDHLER

168 GPCRs [9] = target: T9, 168 GPCRs (Homo sapiens, UniProt P08172)
T9 construct: host or cells: PathHunter cell lines
T9 sequence (P08172 1-466): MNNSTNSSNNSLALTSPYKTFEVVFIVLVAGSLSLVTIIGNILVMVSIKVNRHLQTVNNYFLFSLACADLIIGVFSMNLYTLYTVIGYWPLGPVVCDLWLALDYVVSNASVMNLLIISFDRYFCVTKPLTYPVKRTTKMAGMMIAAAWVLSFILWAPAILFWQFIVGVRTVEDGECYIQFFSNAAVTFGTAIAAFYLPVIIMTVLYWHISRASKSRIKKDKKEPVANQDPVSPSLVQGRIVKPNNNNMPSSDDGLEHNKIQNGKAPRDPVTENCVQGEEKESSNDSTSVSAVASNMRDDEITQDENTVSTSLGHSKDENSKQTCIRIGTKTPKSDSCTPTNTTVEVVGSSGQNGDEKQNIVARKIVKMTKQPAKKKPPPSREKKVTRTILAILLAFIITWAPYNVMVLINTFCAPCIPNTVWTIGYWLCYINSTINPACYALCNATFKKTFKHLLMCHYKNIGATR

168 GPCRs [10] = target: T10, 168 GPCRs (Homo sapiens, UniProt Q9H3N8)
T10 construct: host or cells: PathHunter cell lines
T10 sequence (Q9H3N8 whole entry): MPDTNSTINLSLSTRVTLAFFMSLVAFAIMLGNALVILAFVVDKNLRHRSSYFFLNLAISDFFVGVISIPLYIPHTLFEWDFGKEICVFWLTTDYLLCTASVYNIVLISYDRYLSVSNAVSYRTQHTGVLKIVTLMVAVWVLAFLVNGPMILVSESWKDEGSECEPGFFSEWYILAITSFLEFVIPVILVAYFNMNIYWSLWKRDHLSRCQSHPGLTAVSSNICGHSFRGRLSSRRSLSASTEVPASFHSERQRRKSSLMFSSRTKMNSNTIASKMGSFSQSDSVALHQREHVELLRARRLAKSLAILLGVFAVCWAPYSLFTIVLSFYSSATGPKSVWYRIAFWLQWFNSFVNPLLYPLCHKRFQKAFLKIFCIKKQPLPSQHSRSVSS

T1 sequence (P20309 whole entry): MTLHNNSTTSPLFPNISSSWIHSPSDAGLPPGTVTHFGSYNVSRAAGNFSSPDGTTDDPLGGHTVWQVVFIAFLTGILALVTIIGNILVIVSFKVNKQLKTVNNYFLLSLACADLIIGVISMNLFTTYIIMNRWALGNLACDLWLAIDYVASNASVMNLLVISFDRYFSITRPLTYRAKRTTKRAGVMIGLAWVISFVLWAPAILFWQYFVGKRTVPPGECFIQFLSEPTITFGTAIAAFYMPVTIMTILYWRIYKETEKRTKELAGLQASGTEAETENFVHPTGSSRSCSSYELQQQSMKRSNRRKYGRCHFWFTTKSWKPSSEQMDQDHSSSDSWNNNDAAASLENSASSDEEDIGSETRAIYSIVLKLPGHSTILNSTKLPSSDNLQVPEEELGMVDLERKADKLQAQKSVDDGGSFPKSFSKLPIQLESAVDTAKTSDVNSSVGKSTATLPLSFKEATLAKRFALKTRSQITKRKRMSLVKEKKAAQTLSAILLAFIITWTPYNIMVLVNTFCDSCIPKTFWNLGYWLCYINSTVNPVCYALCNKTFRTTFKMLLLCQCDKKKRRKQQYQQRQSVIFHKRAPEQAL
T2 sequence (P30872 whole entry): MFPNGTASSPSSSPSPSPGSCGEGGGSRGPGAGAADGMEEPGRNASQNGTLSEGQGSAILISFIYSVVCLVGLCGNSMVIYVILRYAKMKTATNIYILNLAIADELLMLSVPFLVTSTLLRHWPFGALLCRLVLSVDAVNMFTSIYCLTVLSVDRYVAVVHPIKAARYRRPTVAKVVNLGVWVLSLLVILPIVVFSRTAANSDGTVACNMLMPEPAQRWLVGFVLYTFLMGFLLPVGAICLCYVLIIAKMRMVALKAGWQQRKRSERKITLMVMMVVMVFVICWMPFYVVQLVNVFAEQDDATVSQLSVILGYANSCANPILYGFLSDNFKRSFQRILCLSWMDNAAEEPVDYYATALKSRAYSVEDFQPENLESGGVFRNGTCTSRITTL

SMILES	% Agonist Activity (168 GPCRs [1]; CHRM3, 1 uM) [%]	% Antagonist Activity (168 GPCRs [1]; CHRM3, 1 uM) [%]	% Agonist Activity (168 GPCRs [1]; CHRM3, 10 uM) [%]	% Antagonist Activity (168 GPCRs [1]; CHRM3, 10 uM) [%]	% Agonist Activity (168 GPCRs [2]; Conc 1 uM) [%]	% Antagonist Activity (168 GPCRs [2]; Conc 1 uM) [%]	% Agonist Activity (168 GPCRs [2]; Conc 10 uM) [%]	% Antagonist Activity (168 GPCRs [2]; Conc 10 uM) [%]	% Agonist Activity (168 GPCRs [3]; CCR2, 1 uM) [%]	% Antagonist Activity (168 GPCRs [3]; CCR2, 1 uM) [%]	% Agonist Activity (168 GPCRs [3]; CCR2, 10 uM) [%]	% Antagonist Activity (168 GPCRs [3]; CCR2, 10 uM) [%]	% Agonist Activity (168 GPCRs [4]; 1 uM) [%]	% Antagonist Activity (168 GPCRs [4]; 1 uM) [%]	% Agonist Activity (168 GPCRs [4]; 10 uM) [%]	% Antagonist Activity (168 GPCRs [4]; 10 uM) [%]	% Agonist Activity (168 GPCRs [5]; 1 uM) [%]	% Antagonist Activity (168 GPCRs [5]; 1 uM) [%]	% Agonist Activity (168 GPCRs [5]; 10 uM) [%]	% Antagonist Activity (168 GPCRs [5]; 10 uM) [%]	also measured
CNC(C)Cc1ccc2c(c1)OCO2 (centres unmarked) [MDMA, 3,4-Methylenedioxy methamphetamine, reference compound]	5.1	-9.4	4.3	1.4	-9	5.6	-12.3	7.5	0.5	9.2	0.7	11.1	-6.6	6.5	-3.4	-4.9	0.7	-15.2	1.4	-11.4	% Agonist Activity (168 GPCRs [6]; EDG6, 1 uM): 6.3%; % Antagonist Activity (168 GPCRs [6]; EDG6, 1 uM): 14.1%; % Agonist Activity (168 GPCRs [6]; EDG6, 10 uM): 4%; % Antagonist Activity (168 GPCRs [6]; EDG6, 10 uM): 18%; % Agonist Activity (168 GPCRs [7]; DRD3, 1 uM): 7.1%; % Antagonist Activity (168 GPCRs [7]; DRD3, 1 uM): 9.6%; % Agonist Activity (168 GPCRs [7]; DRD3, 10 uM): 7.3%; % Antagonist Activity (168 GPCRs [7]; DRD3, 10 uM): 10.6%; % Agonist Activity (168 GPCRs [8]; Conc 1 uM): 3.5%; % Antagonist Activity (168 GPCRs [8]; Conc 1 uM): 5.2%; % Agonist Activity (168 GPCRs [8]; Conc 10 uM): 3.6%; % Antagonist Activity (168 GPCRs [8]; Conc 10 uM): 4.2%; % Agonist Activity (168 GPCRs [9]; CHRM2, 1 uM): 0.9%; % Antagonist Activity (168 GPCRs [9]; CHRM2, 1 uM): -1%; % Agonist Activity (168 GPCRs [9]; CHRM2, 10 uM): 1.4%; % Antagonist Activity (168 GPCRs [9]; CHRM2, 10 uM): 10.5%; % Agonist Activity (168 GPCRs [10]; HRH4, 1 uM): 1.9%; % Antagonist Activity (168 GPCRs [10]; HRH4, 1 uM): 14.5%; % Agonist Activity (168 GPCRs [10]; HRH4, 10 uM): 3.1%; % Antagonist Activity (168 GPCRs [10]; HRH4, 10 uM): 14.5%
CNC(C)C(=O)c1ccc2c(c1)OCO2 (centres unmarked) [methylone]	6	-5.5	6	14.6	-5.3	32.4	-7.4	20.9	-0.4	2	-0.5	4.9	-2.6	20.1	-4.4	15.9	1	-16.5	0.5	-20.2	% Agonist Activity (168 GPCRs [6]; EDG6, 1 uM): -1.7%; % Antagonist Activity (168 GPCRs [6]; EDG6, 1 uM): 13.2%; % Agonist Activity (168 GPCRs [6]; EDG6, 10 uM): -0.3%; % Antagonist Activity (168 GPCRs [6]; EDG6, 10 uM): 7.8%; % Agonist Activity (168 GPCRs [7]; DRD3, 1 uM): 2.2%; % Antagonist Activity (168 GPCRs [7]; DRD3, 1 uM): -12%; % Agonist Activity (168 GPCRs [7]; DRD3, 10 uM): 2.3%; % Antagonist Activity (168 GPCRs [7]; DRD3, 10 uM): -17.8%; % Agonist Activity (168 GPCRs [8]; Conc 1 uM): 4.5%; % Antagonist Activity (168 GPCRs [8]; Conc 1 uM): -6.2%; % Agonist Activity (168 GPCRs [8]; Conc 10 uM): 1.9%; % Antagonist Activity (168 GPCRs [8]; Conc 10 uM): -5.7%; % Agonist Activity (168 GPCRs [9]; CHRM2, 1 uM): -0.2%; % Antagonist Activity (168 GPCRs [9]; CHRM2, 1 uM): -18.5%; % Agonist Activity (168 GPCRs [9]; CHRM2, 10 uM): 0.2%; % Antagonist Activity (168 GPCRs [9]; CHRM2, 10 uM): -7.4%; % Agonist Activity (168 GPCRs [10]; HRH4, 1 uM): 8.6%; % Antagonist Activity (168 GPCRs [10]; HRH4, 1 uM): -11.6%; % Agonist Activity (168 GPCRs [10]; HRH4, 10 uM): 9%; % Antagonist Activity (168 GPCRs [10]; HRH4, 10 uM): -14%
